Measured values taken from ChEMBL document CHEMBL1131834, “Synthesis and antitumoral activities of marine ent-chromazonarol and related compounds” (Bioorg Med Chem Lett, 1999).

Legend:
Type in all cases: functional, cell-based
A549 = assay: Antitumoral activity was assayed against A-549 cell line; conditions: Homo sapiens
HT-29 = assay: Antitumoral activity was assayed against HT-29 cell line; conditions: Homo sapiens
SK-MEL-28 = assay: Antitumoral activity was assayed against MEL-28 cell line; conditions: Homo sapiens
P388 = assay: Antitumoral activity was assayed against P-388 cell line; conditions: Mus musculus

IC50 (A549) [µM] | IC50 (HT-29) [µM] | IC50 (SK-MEL-28) [µM] | IC50 (P388) [µM] | Structure (SMILES)
15.9 | 15.9 | 15.9 | 15.9 | CC1(C)CCC[C@@]2(C)C1CC[C@@]1(C)Oc3ccc(O)cc3C[C@@H]12 (some centres not stated)
0.79 | 0.79 | 0.79 | 0.16 | CC1=CCC2C(C)(C)CCC[C@]2(C)[C@H]1Cc1cc(O)ccc1O (some centres not stated)
3.2 | 3.2 | 3.2 | 0.8 | CC1=CCC2C(C)(C)CCC[C@]2(C)[C@H]1CC1=CC(=O)C=CC1=O (some centres not stated)
